Test results as given in patent US10730863B2, “Bridged bicyclic compounds as farnesoid X receptor modulators” (BRISTOL-MYERS SQUIBB COMPANY, priority 2017, dated 2020).

Molecular target: FXR (Homo sapiens (Human), UniProt Q96RI1)
Test: FXR EC50 (FXR agonist activity reported with each example)
Format: cell-based

FXR, sequence (Q96RI1 262-486): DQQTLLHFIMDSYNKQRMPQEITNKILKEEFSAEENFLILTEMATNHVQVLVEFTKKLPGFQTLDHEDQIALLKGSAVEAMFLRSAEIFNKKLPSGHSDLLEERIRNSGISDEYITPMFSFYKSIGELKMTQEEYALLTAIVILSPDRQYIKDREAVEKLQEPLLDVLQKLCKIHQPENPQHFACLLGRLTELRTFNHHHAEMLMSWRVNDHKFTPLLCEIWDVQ

O=C(O)c1cc(-c2noc(C34CCC(OCc5c(-c6c(Cl)cncc6Cl)noc5C5CC5)(CC3)CC4)n2)cc(C(F)(F)F)c1 [Example 235, 3-(5-(4-((5-cyclopropyl-3-(3,5-dichloropyridin-4-yl)isoxazol-4-yl)methoxy)bicyclo[2.2.2]octan-1-yl)-1,2,4-oxadiazol-3-yl)-5-(trifluoromethyl)benzoic acid]
EC50: 25 nM

CS(=O)(=O)c1cc(C(=O)O)nc2ccc(OCC34CCC(OCc5c(-c6c(Cl)cncc6Cl)noc5C5CC5)(CC3)CC4)cc12 [Example 332, 6-((4-((5-cyclopropyl-3-(3,5-dichloropyridin-4-yl)isoxazol-4-yl)methoxy)bicyclo[2.2.2]octan-1-yl)methoxy)-4-(methylsulfonyl)quinoline-2-carboxylic acid]
EC50: 830 nM

O=C(O)c1ccc2nc(OCC34CCC(C=Cc5c(-c6c(Cl)cccc6Cl)noc5C5CC5)(CC3)CC4)sc2c1 [Example 192]
EC50: 7.2 nM

NC(=O)C12CCC(COCc3c(-c4c(Cl)cccc4Cl)noc3C3CC3)(CC1)CC2 [Intermediate 162C, 4-(((5-cyclopropyl-3-(2,6-dichlorophenyl)isoxazol-4-yl)methoxy)methyl)bicyclo[2.2.2]octane-1-carboxamide]
EC50: 180 nM

CC(C)Oc1cc(C#CC23CCC(OCc4c(-c5c(Cl)cncc5Cl)noc4C4CC4)(CC2)CC3)cc(C(=O)O)c1 [Example 400]
EC50: 29 nM

O=C(O)c1cc(OCC23CCC(/C=C/c4c(-c5c(Cl)cncc5Cl)noc4C4CC4)(CC2)OC3)cc(C(F)(F)F)c1 [Example 473, (E)-3-((1-(2-(5-cyclopropyl-3-(3,5-dichloropyridin-4-yl)isoxazol-4-yl)vinyl)-2-oxabicyclo[2.2.2]octan-4-yl)methoxy)-5-(trifluoromethyl)benzoic acid]
EC50: 320 nM

Cc1cc(OCC23CCC(/C=C/c4c(-c5c(Cl)cncc5Cl)noc4C4CC4)(CC2)CC3)c2cc(C(=O)O)cc(F)c2n1 [Example 447, (E)-4-((4-(2-(5-cyclopropyl-3-(3,5-dichloropyridin-4-yl)isoxazol-4-yl)vinyl)bicyclo[2.2.2]octan-1-yl)methoxy)-8-fluoro-2-methylquinoline-6-carboxylic acid]
EC50: 2400 nM

O=C(O)c1cc(-c2noc(C34CCC(COCc5c(-c6c(Cl)cncc6Cl)noc5C5CC5)(CC3)CC4)n2)cc(C(F)(F)F)c1 [Example 485, 3-(5-(4-(((5-cyclopropyl-3-(3,5-dichloropyridin-4-yl)isoxazol-4-yl)methoxy)methyl)bicyclo[2.2.2]octan-1-yl)-1,2,4-oxadiazol-3-yl)-5-(trifluoromethyl)benzoic acid]
EC50: 380 nM

O=C(O)c1cc(-c2nc(C34CCC(OCc5c(-c6ccccc6C(F)(F)F)noc5C5CC5)(CC3)CC4)no2)ccn1 [Example 59]
EC50: 3800 nM

O=C(O)c1csc(C23CCC(/C=C/c4c(-c5c(Cl)cncc5Cl)noc4C4CC4)(CC2)CC3)n1 [Example 510, (E)-2-(4-(2-(5-cyclopropyl-3-(3,5-dichloropyridin-4-yl)isoxazol-4-yl)vinyl)bicyclo[2.2.2]octan-1-yl)thiazole-4-carboxylic acid]
EC50: 410 nM

CCOc1cc(OCC23CCC(OCc4c(-c5ccccc5C(F)(F)F)noc4C4CC4)(CC2)CC3)cnc1C(=O)O [Example 297]
EC50: 543 nM

COc1cc(-c2noc(C34CCC(OCc5c(-c6c(Cl)cncc6Cl)noc5C5CC5)(CC3)CC4)n2)cnc1C(=O)O [Example 265, 5-(5-(4-((5-cyclopropyl-3-(3,5-dichloropyridin-4-yl)isoxazol-4-yl)methoxy)bicyclo[2.2.2]octan-1-yl)-1,2,4-oxadiazol-3-yl)-3-methoxypicolinic acid]
EC50: 1500 nM

CC(C)Oc1nc(C(=O)O)cc2ccc(/C=C/C34CCC(OCc5c(-c6c(Cl)cncc6Cl)noc5C5CC5)(CC3)CC4)cc12 [Example 518, (E)-7-(2-(4-((5-cyclopropyl-3-(3,5-dichloropyridin-4-yl)isoxazol-4-yl)methoxy)bicyclo[2.2.2]octan-1-yl)vinyl)-1-isopropoxyisoquinoline-3-carboxylic acid]
EC50: 62 nM

O=C(O)c1cccc(NC(=O)C23CCC(COCc4c(-c5c(Cl)cccc5Cl)noc4C4CC4)(CC2)CC3)c1Cl [Example 173]
EC50: 1400 nM

Cc1c(OCC23CCC(OCc4c(-c5c(Cl)cccc5Cl)noc4C4CC4)(CC2)CC3)cccc1C(=O)O [Example 95, 3-((4-((5-cyclopropyl-3-(2,6-dichlorophenyl)isoxazol-4-yl)methoxy)bicyclo[2.2.2]octan-1-yl)methoxy)-2-methylbenzoic acid]
EC50: 400 nM

O=C(O)c1ccc(C23CCC(OCc4c(-c5c(Cl)cccc5Cl)noc4C4CC4)(CC2)CC3)nc1 [Example 138, 6-(4-((5-cyclopropyl-3-(2,6-dichlorophenyl)isoxazol-4-yl)methoxy)bicyclo[2.2.2]octan-1-yl)nicotinic acid]
EC50: 440 nM

O=C(O)c1cn2ccc(C#CC34CCC(OCc5c(-c6c(Cl)cncc6Cl)noc5C5CC5)(CC3)CC4)cc2n1 [Example 394]
EC50: 180 nM

O=C(O)c1cc(OCC23CCC(/C=C/c4c(-c5c(Cl)cncc5Cl)noc4C4CC4)(CC2)CO3)cc(OC(F)F)c1 [Example 499, (E)-3-((4-(2-(5-cyclopropyl-3-(3,5-dichloropyridin-4-yl)isoxazol-4-yl)vinyl)-2-oxabicyclo[2.2.2]octan-1-yl)methoxy)-5-(difluoromethoxy)benzoic acid]
EC50: 160 nM

O=C(O)c1ccc(OCC23CCC(OCc4c(-c5ccccc5C(F)(F)F)noc4C4CC4)(CC2)CC3)c2ncccc12 [Example 305]
EC50: 104 nM

COc1ccc(-c2noc(C34CCC(OCc5c(-c6ccccc6OC(F)(F)F)noc5C5CC5)(CC3)CC4)n2)cc1C(=O)O [Example 4, 5-(5-(4-((5-cyclopropyl-3-(2-(trifluoromethoxy)phenyl)isoxazol-4-yl)methoxy)bicyclo[2.2.2]octan-1-yl)-1,2,4-oxadiazol-3-yl)-2-methoxybenzoic acid]
EC50: 110 nM

Cc1nc(C#CC23CCC(OCc4c(-c5c(Cl)cncc5Cl)noc4C4CC4)(CC2)CC3)ccc1C(=O)O [Example 417]
EC50: 300 nM

O=C(O)c1cccc(-c2nc(C34CCC(OCc5c(-c6ccccc6OC(F)(F)F)noc5C5CC5)(CC3)CC4)no2)c1 [Example 55]
EC50: 250 nM

COC1CN(c2cc(C(=O)O)nc3ccc(OCC45CCC(OCc6c(-c7c(Cl)cncc7Cl)noc6C6CC6)(CC4)CC5)cc23)C1 [Example 329, 6-((4-((5-cyclopropyl-3-(3,5-dichloropyridin-4-yl)isoxazol-4-yl)methoxy)bicyclo[2.2.2]octan-1-yl)methoxy)-4-(3-methoxyazetidin-1-yl)quinoline-2-carboxylic acid]
EC50: 1400 nM

O=C(O)c1ccc(-c2noc(C34CCC(COCc5c(-c6ccccc6OC(F)(F)F)noc5C5CC5)(CC3)CC4)n2)cc1 [Example 154]
EC50: 960 nM

O=C(O)c1ncc(OCC23CCC(OCc4c(-c5c(Cl)cncc5Cl)noc4C4CC4)(CC2)CC3)cc1OCC1CC1 [Example 337]
EC50: 27 nM

COc1cncc(Cl)c1-c1noc(C2CC2)c1COC12CCC(COc3cc(C)c(C(=O)O)cn3)(CC1)CC2 [Example 119, 6-((4-((3-(3-chloro-5-methoxypyridin-4-yl)-5-cyclopropylisoxazol-4-yl)methoxy)bicyclo[2.2.2]octan-1-yl)methoxy)-4-methylnicotinic acid]
EC50: 120 nM

O=C(O)c1cc(F)cc2nc(OCC34CCC(/C=C/c5c(-c6c(Cl)cncc6Cl)noc5C5CC5)(CC3)CC4)sc12 [Example 469, (E)-2-((4-(2-(5-cyclopropyl-3-(3,5-dichloropyridin-4-yl)isoxazol-4-yl)vinyl)bicyclo[2.2.2]octan-1-yl)methoxy)-5-fluorobenzo[d]thiazole-7-carboxylic acid]
EC50: 190 nM

COc1ccc(C(=O)O)c2ccc(C34CCC(OCc5c(-c6c(Cl)cncc6Cl)noc5C5CC5)(CC3)CC4)nc12 [Example 371]
EC50: 18 nM

CC(C)Oc1cc(C(=O)O)nc2ccc(OCC34CCC(OCc5c(-c6c(Cl)cncc6Cl)noc5C5CC5)(CC3)CC4)cc12 [Example 328, 6-((4-((5-cyclopropyl-3-(3,5-dichloropyridin-4-yl)isoxazol-4-yl)methoxy)bicyclo[2.2.2]octan-1-yl)methoxy)-4-isopropoxyquinoline-2-carboxylic acid]
EC50: 15 nM

COc1cc(OCC23CCC(/C=C/c4c(-c5c(Cl)cncc5Cl)noc4C4CC4)(CC2)CC3)cc(C(=O)O)c1 [Example 493, (E)-3-((4-(2-(5-cyclopropyl-3-(3,5-dichloropyridin-4-yl)isoxazol-4-yl)vinyl)bicyclo[2.2.2]octan-1-yl)methoxy)-5-methoxybenzoic acid]
EC50: 18 nM

COc1cc(OCC23CCC(/C=C/c4c(-c5c(Cl)cncc5Cl)noc4C4CC4)(CC2)OC3)cc(C(=O)O)c1 [Example 474, (E)-3-((1-(2-(5-cyclopropyl-3-(3,5-dichloropyridin-4-yl)isoxazol-4-yl)vinyl)-2-oxabicyclo[2.2.2]octan-4-yl)methoxy)-5-methoxybenzoic acid]
EC50: 490 nM

O=C(O)c1cc(C(F)(F)F)c2nccc(C34CCC(OCc5c(-c6c(Cl)cncc6Cl)noc5C5CC5)(CC3)CC4)c2c1 [Example 372]
EC50: 570 nM

O=C(O)c1ccc(-c2noc(C34CCC(OCc5c(-c6ccccc6C(F)(F)F)noc5C5CC5)(CC3)CC4)n2)cn1 [Example 46]
EC50: 2700 nM

Cn1cc(C(=O)O)c2ccc(C#CC34CCC(OCc5c(-c6c(Cl)cncc6Cl)noc5C5CC5)(CC3)CC4)nc21 [Example 363]
EC50: 260 nM

O=C(O)c1ccc(OC2CCC2)c2nc(C34CCC(OCc5c(-c6c(Cl)cncc6Cl)noc5C5CC5)(CC3)CC4)ccc12 [Example 405]
EC50: 28 nM

COc1cc(OCC23CCC(OCc4c(-c5c(Cl)cncc5Cl)noc4C4CC4)(CC2)CC3)cnc1C(=O)O [Example 335, 5-((4-((5-cyclopropyl-3-(3,5-dichloropyridin-4-yl)isoxazol-4-yl)methoxy)bicyclo[2.2.2]octan-1-yl)methoxy)-3-methoxypicolinic acid]
EC50: 170 nM

O=C(O)c1cc(-c2noc(C34CCC(OCc5c(-c6c(Cl)cccc6Cl)noc5C5CC5)(CC3)CC4)n2)ccn1 [Example 14, 4-(5-(4-((5-cyclopropyl-3-(2,6-dichlorophenyl)isoxazol-4-yl)methoxy)bicyclo[2.2.2]octan-1-yl)-1,2,4-oxadiazol-3-yl)picolinic acid]
EC50: 130 nM
